Laboratory results published in paper PMC9653409, “Generative deep learning enables the discovery of a potent and selective RIPK1 inhibitor” (Nature Communications, 2022).

How the values were obtained:
RIPK1 [1] = molecular target: T1, RIPK1 (Homo sapiens, UniProt Q13546); assay: RIPK1 kinase assay, 33P-labeled ATP assay at Eurofins; format: biochemical; settings: read-out: RIPK1 IC50
T1 sequence (Q13546 1-671): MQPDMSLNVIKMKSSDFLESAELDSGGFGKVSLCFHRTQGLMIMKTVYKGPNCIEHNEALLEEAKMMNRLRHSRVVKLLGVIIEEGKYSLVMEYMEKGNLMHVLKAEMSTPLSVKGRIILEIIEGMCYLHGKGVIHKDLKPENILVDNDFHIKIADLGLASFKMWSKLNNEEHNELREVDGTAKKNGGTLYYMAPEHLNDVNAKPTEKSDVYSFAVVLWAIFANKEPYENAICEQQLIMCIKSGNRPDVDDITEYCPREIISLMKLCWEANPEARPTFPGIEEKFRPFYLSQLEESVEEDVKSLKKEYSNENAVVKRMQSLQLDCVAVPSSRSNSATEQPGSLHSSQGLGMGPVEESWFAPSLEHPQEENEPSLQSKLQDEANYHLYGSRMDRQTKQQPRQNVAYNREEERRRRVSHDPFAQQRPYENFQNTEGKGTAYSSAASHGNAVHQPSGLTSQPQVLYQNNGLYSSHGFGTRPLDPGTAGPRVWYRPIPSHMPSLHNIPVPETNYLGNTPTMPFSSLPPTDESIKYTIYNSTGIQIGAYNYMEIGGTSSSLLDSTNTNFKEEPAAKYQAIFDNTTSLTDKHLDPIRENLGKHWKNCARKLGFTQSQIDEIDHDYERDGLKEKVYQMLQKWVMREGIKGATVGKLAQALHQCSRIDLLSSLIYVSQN
Protocol: In vitro kinase activity assays were conducted through the Kinase Profiling Services provided by Eurofins (Eurofins, France). The protocol for the RIPK1 assay is briefly described as follows (Protocols for other kinases are very similar and can be found in http://www.eurofins.com/pharmadiscovery). RIPK1 kinase was incubated with the test compound in assay buffer containing 8 mM MOPS (pH 7.0), 0.2 mM EDTA, 250 μM […], 10 mM magnesium acetate, and 10 μM [γ-33P]-ATP for 15 min at room temperature. The reaction was initiated by the addition of the Mg/ATP mixture. After incubation for 40 min at room temperature, and the reaction was stopped by the addition of 3% phosphoric acid. A 10 μL portion of the reaction mixture was then spotted onto a P30 filter mat and washed four times for 4 min in 0.425% phosphoric acid and once in methanol prior to drying and scintillation counting.

HT29 cells = assay: TSZ-induced HT29 cell necroptosis model (CCK8); format: cell-based; settings: Homo sapiens, HT-29; TSZ-induced necroptosis; read-out: HT29 EC50
Protocol: Cell necroptosis protection assays were performed in 96-well cell culture plates. Cells were plated in each well and cultured at 37 °C overnight. […] The cell survival rate was determined using a CCK8 cell viability assay kit and CLARIOstar (v5.61). […] All experiments were performed at least two times, and each EC50 value was expressed as mean ± standard deviation (SD).

[2] = Cytotoxicity at high concentration; format: cell-based; settings: 3-10 μM
RIPK1 [3] = molecular target: T1, RIPK1; settings: cited from earlier work

| Structure (SMILES) | IC50 (RIPK1 [1]) [nM] | EC50 (HT29 cells) [nM] | cytotoxicity [2] | potency against RIPK1 (RIPK1 [3]) [nM] |
| --- | --- | --- | --- | --- |
| CNC(=O)c1n[nH]c2cc(-c3ccc(C(=O)NCc4ccc(OCCC5CC5)cc4)nc3)ccc12 [RI-413] | > 10000 | > 30000 | – | – |
| CC(=O)Nc1cn2cc(-c3ccc(CNC(=O)c4cc(F)ccc4OCC4CCCC4)nc3)ccc2n1 [RI-985] | > 10000 | > 30000 | – | – |
| Cc1cc(Oc2ccc(F)c(C(=O)NCc3ccc(F)cc3)n2)cc(C(=O)NCc2ccc(Br)s2)c1 [RI-539] | > 10000 | > 30000 | – | – |
| CC(NC(=O)c1cn(C)c2ccc(-c3ccn4nc(NC(=O)C5CC5)cc4n3)cc12)c1ccccc1 (centres unmarked) [RI-056] | 65 | 49 | some cytotoxicity at high concentration (3-10 μM) | – |
| CN1C(=O)NC(Cc2c[nH]c3c(Cl)cccc23)C1=O (centres unmarked) [Nec-1a] | – | – | – | 317 |
| CCOc1ccccc1CNCC(=O)c1cn2ccc(-c3ccn4nc(NC(=O)C(C)C)nc4c3)cc2n1 [RI-753, N-(7-(2-((2-ethoxybenzyl)glycyl)imidazo[1,2-a]pyridin-7-yl)-[1,2,4]triazolo[1,5-a]pyridin-2-yl)isobutyramide] | 463 | 64 | – | – |
| CC(NCC(=O)Nc1cccc(-c2cc(C(=O)NCc3cccc(F)c3)n(C)c2)n1)c1ccccc1F (centres unmarked) [RI-470, N-(3-fluorobenzyl)-4-(6-(2-((1-(2-fluorophenyl)ethyl)amino)acetamido)pyridin-2-yl)-1-methyl-1H-pyrrole-2-carboxamide] | > 10000 | > 100000 | – | – |
| CC(NC(=O)c1cn(C)c2ccc(-c3ccn4nc(NC(=O)C5CC5)cc4n3)cc12)c1ccc(F)cc1 (centres unmarked) [RI-1155] | 49 | 40 | some cytotoxicity at high concentration (3-10 μM) | – |
